Values joined by “and” are separate entries in the source; they are usually repeats but may differ in a detail not shown here. Identical values can stand only once. “Also recorded” adds a separate entry of the source.
Assays:
IEC-6 cells = assay: Growth of intestinal epithelial IEC-6 cells (cell count); type: cell-based, rat
Experimental: IEC-6 cells were grown in 60-mm dishes. […] Values are means±SE for 3 cultures.
(§1) To characterize the capacity of gastric and intestinal cells to respond to AMP-18, AGS gastric adenocarcinoma cells, HAE human gastric antrum mucosa primary cultures transformed with SV40 large T antigen, rat diploid small intestinal epithelial cells of the IEC-6 (FIG. 15) and IEC-18 lines, NCI N-87 gastric carcinoma cells, and SK-GT5 gastroesophageal adenocarcinoma cells were studied; human WI-38 fibroblasts and HeLa cells served as non-GI control cell lines. Mitogenesis was assayed by performing cell counts 3 to 4 days after exposing cells to the agent of interest, trypsinizing the culture to prepare single cells, and confirming this while counting them in a hemocytometer.

MDCK cells = assay: Transepithelial electrical resistance (TER) of MDCK cell monolayers; type: cell-based
Experimental: Monolayer cultures of MDCK cells were grown on permeable polycarbonate filters (0.4-μm pore size) (Transell) in DMEM containing FBS (2%) without (control) or with peptide 77-97 (8 μg/ml) for 8 days. TER was measured 24 hr after the cells were plated, and at specified times thereafter using an epithelial volt-ohm meter (EVOM, Millipore). Following each measurement, medium containing FBS without or with peptide was changed (0, 48, and 144 hr), and additional peptide 77-97 (8 μg/ml) was added at 30 and 72 hr. At 72 hr, TER in cultures that received peptide 77-97 was twice as high as in control cultures. Values are means for 3 cultures; variance is <10% of the mean. TER was measured from 3 different areas on the filter.
(§2) Panel A: When a stable TER was reached (330 Ω·cm^2) in MDCK cell monolayers the medium was changed to DMEM containing FBS (0.2%), and either peptide 77-97 (8 μg/ml) or EGF (50 ng/ml). After 18 hr, peptide 77-97 or EGF were added to the specified wells. One hour later monochloramine (0.1 mM), like the other agents, was added to the apical and basal compartments of the Transwell. […] Panels B, C: Caco2/bbe (C2) subclone monolayers were grown on collagen-coated polycarbonate filters until a stable TER was reached (225 Ω·cm^2). Spent medium was replaced with fresh medium containing FBS (0.1%) alone or with peptide 77-97 (8 μg/ml). After 18 hr, monochloramine (0.3 mM, B) or indomethacin (0.1 mM, C) was added to both compartments of the Transwell. At time 0, cultures received either vehicle (control), vehicle plus oxidant or indomethacin, or peptide 77-97 and oxidant or indomethacin. TER of injured cultures treated with vehicle decreased by ˜35% at 90 min, whereas peptide-treated cultures declined ˜10%.

Caco2/bbe (C2) cells = assay: Transepithelial electrical resistance (TER) of Caco2/bbe (C2) cell monolayers after injury; type: cell-based, human
Experimental: as §2
C2 cell monolayers were grown in DMEM containing FBS (5%) and transferrin (10 μg/ml) on collagen-coated polycarbonate filters until a stable TER was reached (225 Ωcm^2). At time 0, cells were exposed to no DSS (control), or DSS (4%) in the upper compartment of the Transwell. AMP peptide 77-97 (8 μg/ml) was added to the upper and lower compartments of the Transwell 1 day prior to the addition of DSS at time 0. TER of DSS-injured cultures treated with vehicle decreased by ˜70% at 45 min, whereas peptide-treated cultures declined ˜10% at that time. […] Values are means for ≧6 cultures.
Confluent C2 cell monolayers were prepared on Transwells until a stable TER was established. Medium was replaced with fresh medium containing FBS (0.1%) alone (control), or with either rhAMP-18 (100 nanomolar) or peptide 77-97 (3.7 micromolar). After 18 hr, monochloramine (0.3 mM) was added to both compartments of the Transwell, and cultures received either vehicle (control), vehicle plus oxidant, rhAMP-18 and oxidant, or peptide 77-97 and oxidant, after which TER was measured.
To determine whether AMP peptide could speed recovery of TER after DSS-induced colonic cell injury, a highly sought-after functional characteristic of an agent designed to treat IBD, C2 cell monolayers were exposed to DSS (5%) for 10 min which reduced TER to 33±6% of the control value (FIG. 29, left panel). DSS was removed by aspirating the medium and replacing it with fresh medium. AMP peptide 77-97 (8 μg/ml) or vehicle was added to the culture medium, and TER was measured 18 hr later. In the presence of the vehicle, TER increased from 33% to 66±7% of the control value, whereas cells exposed to AMP peptide reached a value 112±4% of control.
To determine if the cytoprotective effect of AMP peptide is mediated at the level of the actin cytoskeleton, C2 cell monolayers were exposed to cytochalasin D, an agent known to disrupt actin filaments and compromise barrier function (Madara et al., 1986).
To determine if AMP peptide could play a cytoprotective role in GDS, a study was carried out in C2 cell monolayers that were exposed to the PA-I lectin. […] Next the effect of AMP peptide was studied in the mouse model of P. aeruginosa-induced-GDS (Laughlin et al., 2000) using female Balb/c mice subjected to 30% hepatectomy, injection of a solution of living P. aeruginosa into the cecum, and food deprivation postoperatively. All 8 of the mice survived surgery.

HeLa cells = assay: Growth of HeLa cells (non-GI control); type: cell-based, human; settings: peptide up to 8 μg/ml
Experimental: as §1

SK-GT5 cells = assay: Growth of SK-GT5 gastroesophageal adenocarcinoma cells; type: cell-based; settings: concentration-dependent
Experimental: as §1

## LDALVKEKKLQGKGPGGPPPK [97–117, peptide 77-97 of the mature protein, same as 97-117 of the human precursor]
IEC-6 cells
  growth stimulation of IEC-6 cells (in words): stimulated growth in a concentration-dependent manner
IEC-6 cells; FIG. 15, center panel, listed as AMP peptide
  concentration at near-maximal growth stimulation: 0.5 μg/ml and 0.23 μM
IEC-6 cells; peptide 1 μg/ml vs EGF 50 ng/ml
  potency compared with EGF: more potent than EGF
MDCK cells; by 24 hr and to a greater extent thereafter
  maturation of TER: increases TER
MDCK cells; peptide 8 μg/ml, at 72 hr
  TER relative to control cultures: twice as high
Caco2/bbe (C2) cells; 4 hr
  TER after PA-I lectin (in words): nearly unchanged
Caco2/bbe (C2) cells; 4 hr, vehicle ~22%
  decline of TER after PA-I lectin: 0-5%
Caco2/bbe (C2) cells; DSS 4%, 45 min, peptide 8 μg/ml 1 day prior, vehicle ~70%
  decline of TER of DSS-injured cultures: ~10%
Caco2/bbe (C2) cells; DSS 5% for 10 min, peptide 8 μg/ml, vehicle 66±7%
  TER 18 hr after removal of DSS: 112±4 % of control
Caco2/bbe (C2) cells; cytochalasin D 0.01 μg/ml, 2 hr, peptide 8 μg/ml 18 hr pretreatment, vehicle -34%, listed as AMP peptide
  TER after cytochalasin D: did not decline significantly; also recorded: prevented the decline
Caco2/bbe (C2) cells; monochloramine 0.3 mM or indomethacin 0.1 mM, 90 min, peptide 8 μg/ml, vehicle ~35%
  decline of TER of injured cultures: ~10%
Caco2/bbe (C2) cells; monochloramine 0.3 mM, 45 min, rhAMP-18 100 nanomolar or peptide 3.7 micromolar pre-treatment, oxidant alone ~35%
  decline in TER after monochloramine: ~10%
Caco2/bbe (C2) cells; peptide 8 μg/ml
  effect on TER of non-injured cells: did not alter
HeLa cells
  growth stimulation of HeLa cells: does not stimulate growth
HeLa cells; listed as AMP peptide
  growth stimulation of HeLa cells: failure
SK-GT5 cells
  growth of SK-GT5 cells: stimulated

Source: US7629317B2, “Control of growth and repair of gastro-intestinal tissues by gastrokines and inhibitors” (The University of Chicago, priority 2001, dated 2009)
